Measured values taken from PMC4454739 (Clinical cancer research : an official journal of the …, 2014).
Read-outs that look alike come from different tables or passages of the source. Blank lines part the entries; values can stand above or below the compound they belong to.

How the values were obtained:
Cixutumumab = details: for AUC0–7d / CL / CL (weight-adjusted) / Cmax / Vdss / Vdss (weight-adjusted): median
[1] = Phase I toxicity, DLT and MTD determination; assay type: in vivo, human; details: for recommended pediatric phase II dose: IV once every 7 days
[2] = in vivo; cited from earlier work
[3] = in vivo, 6 mg/kg; cited from earlier work
[4] = assay type: in vivo, human; details: for change of exposure (AUC) with dose: temsirolimus 8, 10 and 15 mg/m^2; for AUC(0-inf) / AUC(0-t) / Cmax / Tmax / Vd / half-life / clearance: human, intravenous; for AUC(0-inf) / AUC(0-t) / Cmax / Tmax / Vd / half-life: plasma; for clearance: whole blood
[5] = cited from earlier work
[6] = adults, metastatic prostate cancer; with cixutumumab 6 mg/kg IV; cited from earlier work
[7] = all patients, combination with temsirolimus
[8] = cycle 1, IMC-A12 6 mg/kg + temsirolimus 8 mg/m^2 (n=8)
[9] = cycle 1, IMC-A12 6 mg/kg + temsirolimus 10 mg/m^2 (n = 3)
[10] = cycle 1, IMC-A12 6 mg/kg + temsirolimus 15 mg/m^2 (n = 4)

Compound: Cixutumumab: fully recombinant IgG1 monoclonal antibody that specifically targets the human IGF-IR1
median half-life (Cixutumumab; [7]): 122 h | median weight-adjusted clearance (Cixutumumab; [7]): 4.08 mL/day/kg | half-life (Cixutumumab; at 6 mg/kg, children): 122 h | steady-state trough concentration (Cixutumumab; at 6 mg/kg, children): 197 mg/mL | median serum trough concentration (Ctrough) (Cixutumumab; day 28 following a 6 mg/kg dose): approximately 200 μg/ml | AUC0–7d (Cixutumumab; [8]): 20.6 ng·h/mL | CL (Cixutumumab; [8]): 8.3 mL/h | CL (weight-adjusted) (Cixutumumab; [8]): 4.56 mL/day/kg | Cmax (Cixutumumab; [8]): 281000 ng/mL | Vdss (Cixutumumab; [8]): 1050 mL | Vdss (weight-adjusted) (Cixutumumab; [8]): 0.0258 L/kg | AUC0–7d (Cixutumumab; [9]): 25.6 ng·h/mL | CL (Cixutumumab; [9]): 9.9 mL/h | CL (weight-adjusted) (Cixutumumab; [9]): 4.08 mL/day/kg | Cmax (Cixutumumab; [9]): 277000 ng/mL | Vdss (Cixutumumab; [9]): 1750 mL | Vdss (weight-adjusted) (Cixutumumab; [9]): 0.0227 L/kg | AUC0–7d (Cixutumumab; [10]): 26.4 ng·h/mL | CL (Cixutumumab; [10]): 7.0 mL/h | CL (weight-adjusted) (Cixutumumab; [10]): 3.12 mL/day/kg | Cmax (Cixutumumab; [10]): 230000 ng/mL | Vdss (Cixutumumab; [10]): 1860 mL | Vdss (weight-adjusted) (Cixutumumab; [10]): 0.0311 L/kg | change in cixutumumab clearance as the temsirolimus dose was increased (Cixutumumab; temsirolimus 8 to 15 mg/m^2): no changes | recommended pediatric phase II dose ([1]; cixutumumab in combination with temsirolimus): 6 mg/kg | recommended phase II dose, single agent [2]: 9 mg/kg | half-life [3]: 209 h | steady-state trough concentration [3]: 145 mg/mL

change of exposure (AUC) with dose [4]: did not appreciably increase with dose | change of exposure (AUC) with dose ([4]; listed as sirolimus): did not increase significantly with dose
Compound: CO[C@H]1C[C@@H]2CC[C@@H](C)[C@@](O)(O2)C(=O)C(=O)N2CCCC[C@H]2C(=O)O[C@H]([C@H](C)C[C@@H]2CC[C@@H](O)[C@H](OC)C2)CC(=O)[C@H](C)/C=C(\C)[C@@H](O)[C@@H](OC)C(=O)[C@H](C)C[C@H](C)/C=C/C=C/C=C/1C [Sirolimus]

Compound: CO[C@H]1C[C@@H]2CC[C@@H](C)[C@@](O)(O2)C(=O)C(=O)N2CCCC[C@H]2C(=O)O[C@H]([C@H](C)C[C@@H]2CC[C@@H](OC(=O)C(C)(CO)CO)[C@H](OC)C2)CC(=O)[C@H](C)/C=C(\C)[C@@H](O)[C@@H](OC)C(=O)[C@H](C)C[C@H](C)/C=C/C=C/C=C/1C [Temsirolimus]
AUC(0-inf) ([4]; 8 mg/m2): 2950 ng·h/mL | AUC(0-t) ([4]; 8 mg/m2): 2020 ng·h/mL | Cmax ([4]; 8 mg/m2): 509 ng/mL | Tmax ([4]; 8 mg/m2): 0.8 h | Vd ([4]; 8 mg/m2): 46.3 L | half-life ([4]; 8 mg/m2): 10.3 h | AUC(0-inf) ([4]; 10 mg/m2): 3650 ng·h/mL | AUC(0-t) ([4]; 10 mg/m2): 2650 ng·h/mL | Cmax ([4]; 10 mg/m2): 606 ng/mL | Tmax ([4]; 10 mg/m2): 0.7 h | Vd ([4]; 10 mg/m2): 50.4 L | half-life ([4]; 10 mg/m2): 10.5 h | AUC(0-inf) ([4]; 15 mg/m2): 3270 ng·h/mL | AUC(0-t) ([4]; 15 mg/m2): 2780 ng·h/mL | Cmax ([4]; 15 mg/m2): 660 ng/mL | Tmax ([4]; 15 mg/m2): 0.6 h | Vd ([4]; 15 mg/m2): 74.9 L | half-life ([4]; 15 mg/m2): 10.3 h | clearance ([4]; 8 mg/m2): 38.3 mL/min | clearance ([4]; 10 mg/m2): 91.7 mL/min | clearance ([4]; 15 mg/m2): 112 mL/min | change of exposure (AUC) with dose [4]: did not increase significantly with dose | clearance from whole blood, mean ([5]; after a 25-mg dose): 20 L/h | steady-state volume of distribution (Vss) ([5]; after a 25-mg dose): 230 L | clearance from whole blood, mean ([5]; after a 250-mg dose): 100 L/h | steady-state volume of distribution (Vss) ([5]; after a 250-mg dose): 900 L | MTD ([1]; temsirolimus combined with cixutumumab 6 mg/kg, children): 8 mg/m^2 | recommended pediatric phase II dose ([1]; temsirolimus in combination with cixutumumab): 8 mg/m^2 | MTD of temsirolimus in the combination, flat dose [6]: 20 mg | MTD of temsirolimus in the combination, per body surface [6]: 11 mg/m^2
